What was measured:
Format in all cases: cell-based
Details in all cases: compounds at 50 nM and 500 nM
[1] = target: T1, WEE1 (Homo sapiens, UniProt P30291+Q96SW2); assay: Western blot degradation of WEE1 in hPBMCs (24 h)
T1 construct: The supernatant was aspirated as the extracted total cell protein; endogenous in cells; host or cells: human peripheral blood mononuclear cells (hPBMCs)
Summary of the method: (§1)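 hPBMCs (1×10^6 cells/mL) were treated with compound at 50 nM and 500 nM for 24 h, lysed in RIPA with protease inhibitors and analysed by SDS-PAGE/Western blot. Band grayscale, normalised to internal control, gave protein remaining (%); DC50 estimated versus DMSO bands.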

[2] = target: T2, IKZF3 (Homo sapiens, UniProt Q96SW2+Q9UKT9); assay: Western blot degradation of IKZF3 in hPBMCs (24 h)
T2 construct: The supernatant was aspirated as the extracted total cell protein; endogenous in cells; host or cells: human peripheral blood mononuclear cells (hPBMCs)
T2 sequence (Q9UKT9 whole entry): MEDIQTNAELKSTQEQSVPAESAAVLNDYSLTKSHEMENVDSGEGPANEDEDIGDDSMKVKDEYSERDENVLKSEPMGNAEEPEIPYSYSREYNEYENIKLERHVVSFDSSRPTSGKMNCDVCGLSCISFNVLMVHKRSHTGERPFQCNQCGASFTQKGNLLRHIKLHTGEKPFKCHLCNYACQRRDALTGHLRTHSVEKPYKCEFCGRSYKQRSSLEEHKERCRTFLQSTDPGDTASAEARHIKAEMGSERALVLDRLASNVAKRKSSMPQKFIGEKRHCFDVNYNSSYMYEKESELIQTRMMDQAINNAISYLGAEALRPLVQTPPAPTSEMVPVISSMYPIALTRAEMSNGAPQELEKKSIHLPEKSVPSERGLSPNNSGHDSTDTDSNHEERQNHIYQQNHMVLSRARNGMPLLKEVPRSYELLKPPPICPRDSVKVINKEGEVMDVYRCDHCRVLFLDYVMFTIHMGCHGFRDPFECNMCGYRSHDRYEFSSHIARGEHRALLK
T2 sequence (Q96SW2 whole entry): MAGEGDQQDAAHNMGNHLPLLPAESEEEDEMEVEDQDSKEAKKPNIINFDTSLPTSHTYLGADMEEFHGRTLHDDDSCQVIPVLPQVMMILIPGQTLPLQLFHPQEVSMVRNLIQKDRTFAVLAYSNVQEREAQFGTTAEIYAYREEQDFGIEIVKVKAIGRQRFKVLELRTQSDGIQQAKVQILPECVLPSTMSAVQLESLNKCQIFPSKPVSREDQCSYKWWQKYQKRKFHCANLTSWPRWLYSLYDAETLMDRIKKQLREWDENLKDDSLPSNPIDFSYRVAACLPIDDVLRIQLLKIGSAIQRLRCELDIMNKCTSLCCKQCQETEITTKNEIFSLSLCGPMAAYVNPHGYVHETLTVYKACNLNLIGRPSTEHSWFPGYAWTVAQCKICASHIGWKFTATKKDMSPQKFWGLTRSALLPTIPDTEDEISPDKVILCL
T2 sequence (Q16531 whole entry partner): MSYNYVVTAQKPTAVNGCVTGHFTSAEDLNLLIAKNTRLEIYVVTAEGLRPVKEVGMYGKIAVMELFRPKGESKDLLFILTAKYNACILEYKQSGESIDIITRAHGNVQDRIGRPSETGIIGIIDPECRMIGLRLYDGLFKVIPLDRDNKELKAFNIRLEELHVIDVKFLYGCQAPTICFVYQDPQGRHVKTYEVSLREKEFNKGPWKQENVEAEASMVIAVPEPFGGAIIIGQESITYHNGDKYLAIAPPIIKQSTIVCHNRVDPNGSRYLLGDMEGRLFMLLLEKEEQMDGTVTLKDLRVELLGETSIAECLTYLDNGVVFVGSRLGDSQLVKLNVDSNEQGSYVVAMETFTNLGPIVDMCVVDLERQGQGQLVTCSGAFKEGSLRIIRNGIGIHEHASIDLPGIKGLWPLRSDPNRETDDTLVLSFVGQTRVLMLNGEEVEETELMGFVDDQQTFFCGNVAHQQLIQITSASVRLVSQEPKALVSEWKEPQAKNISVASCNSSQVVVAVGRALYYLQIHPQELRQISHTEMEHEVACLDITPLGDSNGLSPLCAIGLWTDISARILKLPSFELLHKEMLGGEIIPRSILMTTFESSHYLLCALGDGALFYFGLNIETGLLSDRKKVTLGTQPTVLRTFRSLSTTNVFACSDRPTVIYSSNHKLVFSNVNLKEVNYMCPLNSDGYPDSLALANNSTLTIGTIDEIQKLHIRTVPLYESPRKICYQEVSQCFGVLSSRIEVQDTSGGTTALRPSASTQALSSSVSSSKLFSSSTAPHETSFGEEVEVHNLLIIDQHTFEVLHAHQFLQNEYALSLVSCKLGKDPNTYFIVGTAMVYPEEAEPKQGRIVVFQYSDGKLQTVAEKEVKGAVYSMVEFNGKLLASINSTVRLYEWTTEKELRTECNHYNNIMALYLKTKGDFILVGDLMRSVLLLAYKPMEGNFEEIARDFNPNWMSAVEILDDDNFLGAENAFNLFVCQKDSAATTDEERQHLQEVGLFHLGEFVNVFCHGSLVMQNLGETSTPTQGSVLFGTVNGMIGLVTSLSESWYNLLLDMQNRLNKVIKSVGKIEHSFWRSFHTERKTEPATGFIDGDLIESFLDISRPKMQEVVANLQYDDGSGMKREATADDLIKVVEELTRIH
Summary of the method: as §1

[3] = target: T3, GSPT1 (Homo sapiens, UniProt P15170+Q96SW2); assay: Western blot degradation of GSPT1 in hPBMCs (24 h)
T3 construct: The supernatant was aspirated as the extracted total cell protein; endogenous in cells; host or cells: human peripheral blood mononuclear cells (hPBMCs)
T3 sequence (P15170 whole entry): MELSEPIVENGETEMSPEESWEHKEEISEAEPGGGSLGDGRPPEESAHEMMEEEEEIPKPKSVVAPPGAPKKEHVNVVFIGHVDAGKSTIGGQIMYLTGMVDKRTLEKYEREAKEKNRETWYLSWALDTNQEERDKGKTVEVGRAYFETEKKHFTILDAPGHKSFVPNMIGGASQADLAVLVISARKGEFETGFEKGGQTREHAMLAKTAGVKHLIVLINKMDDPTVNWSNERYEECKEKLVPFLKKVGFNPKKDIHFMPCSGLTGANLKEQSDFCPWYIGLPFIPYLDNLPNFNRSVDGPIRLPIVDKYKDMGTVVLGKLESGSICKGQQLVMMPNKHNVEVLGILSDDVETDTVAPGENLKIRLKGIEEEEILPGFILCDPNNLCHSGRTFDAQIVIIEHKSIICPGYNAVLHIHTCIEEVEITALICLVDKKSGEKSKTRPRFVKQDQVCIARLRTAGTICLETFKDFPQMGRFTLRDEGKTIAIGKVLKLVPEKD
T3 sequence (Q96SW2 whole entry): as the sequence (Q96SW2 whole entry) above
T3 sequence (Q16531 whole entry partner): as the sequence (Q16531 whole entry partner) above
Summary of the method: as §1

[4] = target: T4, IKZF2 (Homo sapiens, UniProt Q96SW2+Q9UKS7); assay: Western blot degradation of IKZF2 in hPBMCs (24 h)
T4 construct: The supernatant was aspirated as the extracted total cell protein; endogenous in cells; host or cells: human peripheral blood mononuclear cells (hPBMCs)
T4 sequence (Q9UKS7 whole entry): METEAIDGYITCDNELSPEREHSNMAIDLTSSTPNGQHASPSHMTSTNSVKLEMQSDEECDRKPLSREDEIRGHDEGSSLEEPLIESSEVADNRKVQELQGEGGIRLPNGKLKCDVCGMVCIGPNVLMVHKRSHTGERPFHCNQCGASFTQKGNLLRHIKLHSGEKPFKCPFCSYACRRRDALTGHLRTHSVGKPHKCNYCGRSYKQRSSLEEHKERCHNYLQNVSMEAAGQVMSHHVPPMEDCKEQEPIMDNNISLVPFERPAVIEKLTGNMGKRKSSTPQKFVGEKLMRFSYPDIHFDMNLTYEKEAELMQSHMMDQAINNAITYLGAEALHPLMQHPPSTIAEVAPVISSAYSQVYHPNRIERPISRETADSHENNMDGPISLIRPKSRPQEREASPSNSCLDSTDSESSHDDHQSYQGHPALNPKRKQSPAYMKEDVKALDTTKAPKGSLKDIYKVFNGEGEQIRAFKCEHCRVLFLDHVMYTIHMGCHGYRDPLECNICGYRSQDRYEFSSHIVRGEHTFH
T4 sequence (Q96SW2 whole entry): as the sequence (Q96SW2 whole entry) above
T4 sequence (Q16531 whole entry partner): as the sequence (Q16531 whole entry partner) above
Summary of the method: as §1

[5] = target: T5, IKZF1 (Homo sapiens, UniProt Q13422+Q96SW2); assay: Western blot degradation of IKZF1 in hPBMCs (24 h)
T5 construct: The supernatant was aspirated as the extracted total cell protein; endogenous in cells; host or cells: human peripheral blood mononuclear cells (hPBMCs)
T5 sequence (Q13422 whole entry): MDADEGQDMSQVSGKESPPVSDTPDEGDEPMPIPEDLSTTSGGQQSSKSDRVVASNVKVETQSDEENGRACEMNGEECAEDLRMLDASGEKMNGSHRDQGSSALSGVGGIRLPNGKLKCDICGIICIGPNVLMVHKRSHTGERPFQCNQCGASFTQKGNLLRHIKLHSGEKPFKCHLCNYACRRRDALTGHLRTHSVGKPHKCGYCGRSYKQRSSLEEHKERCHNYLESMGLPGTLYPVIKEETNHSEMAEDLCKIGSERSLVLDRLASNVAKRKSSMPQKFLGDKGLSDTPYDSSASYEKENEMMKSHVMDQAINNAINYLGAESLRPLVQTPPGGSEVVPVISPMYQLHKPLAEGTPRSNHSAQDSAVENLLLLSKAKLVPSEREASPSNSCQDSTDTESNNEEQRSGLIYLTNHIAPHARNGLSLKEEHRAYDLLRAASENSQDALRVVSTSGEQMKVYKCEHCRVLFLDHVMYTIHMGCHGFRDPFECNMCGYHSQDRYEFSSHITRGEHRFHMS
T5 sequence (Q96SW2 whole entry): as the sequence (Q96SW2 whole entry) above
T5 sequence (Q16531 whole entry partner): as the sequence (Q16531 whole entry partner) above
Summary of the method: as §1

[6] = target: T6, CK1α (Homo sapiens, UniProt P48729+Q96SW2); assay: Western blot degradation of CK1α in hPBMCs (24 h)
T6 construct: The supernatant was aspirated as the extracted total cell protein; endogenous in cells; host or cells: human peripheral blood mononuclear cells (hPBMCs)
Summary of the method: as §1

T1 sequence (P30291 whole entry): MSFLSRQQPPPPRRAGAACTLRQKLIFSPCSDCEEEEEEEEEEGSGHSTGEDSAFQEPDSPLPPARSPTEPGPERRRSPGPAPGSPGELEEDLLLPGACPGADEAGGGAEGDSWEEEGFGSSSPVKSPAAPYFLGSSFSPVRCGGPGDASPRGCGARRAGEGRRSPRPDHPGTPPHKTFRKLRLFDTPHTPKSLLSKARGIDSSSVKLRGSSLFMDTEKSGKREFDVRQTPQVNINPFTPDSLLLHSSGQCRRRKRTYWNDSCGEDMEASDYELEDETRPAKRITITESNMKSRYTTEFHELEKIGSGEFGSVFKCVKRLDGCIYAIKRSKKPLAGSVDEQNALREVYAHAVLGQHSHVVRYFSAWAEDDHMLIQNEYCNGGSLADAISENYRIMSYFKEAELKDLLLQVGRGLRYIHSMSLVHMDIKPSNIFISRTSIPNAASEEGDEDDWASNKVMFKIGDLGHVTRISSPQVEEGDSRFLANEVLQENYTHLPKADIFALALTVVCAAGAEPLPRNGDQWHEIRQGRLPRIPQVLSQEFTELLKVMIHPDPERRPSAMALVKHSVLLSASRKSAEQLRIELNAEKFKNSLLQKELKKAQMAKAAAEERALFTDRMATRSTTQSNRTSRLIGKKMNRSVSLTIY
T1 sequence (Q96SW2 whole entry): as the sequence (Q96SW2 whole entry) above
T1 sequence (Q16531 whole entry partner): as the sequence (Q16531 whole entry partner) above

O=C1CCN(N2C(=O)c3ccc(CN4CCC(c5ncnc6sc(-c7ccccc7)cc56)CC4)cc3C2=O)C(=O)N1 [GT-08108, 2-(2,4-dioxotetrahydropyrimidin-1(2H)-yl)-5-((4-(6-phenylthieno[2,3-d]pyrimidin-4-yl)piperidin-1-yl)methyl)isoindoline-1,3-dione]
WEE1 substrate protein remaining % [1]: A (0% ≤ substrate protein remaining % ≤80%)
IKZF3 substrate protein remaining % [2]: A (0% ≤ substrate protein remaining % ≤80%)
GSPT1 substrate protein remaining % [3]: A (0% ≤ substrate protein remaining % ≤80%)
IKZF2 substrate protein remaining % [4]: A (0% ≤ substrate protein remaining % ≤80%)
IKZF1 substrate protein remaining % [5]: A (0% ≤ substrate protein remaining % ≤80%)
CK1α substrate protein remaining % [6]: A (0% ≤ substrate protein remaining % ≤80%)

O=C1CCN(N2C(=O)c3ccc(CN4CCC(c5ncnc6scc(-c7ccccc7)c56)CC4)cc3C2=O)C(=O)N1 [GT-08109, 2-(2,4-dioxotetrahydropyrimidin-1(2H)-yl)-5-((4-(5-phenylthieno[2,3-d]pyrimidin-4-yl)piperidin-1-yl)methyl)isoindoline-1,3-dione]
WEE1 substrate protein remaining % [1]: A (0% ≤ substrate protein remaining % ≤80%)
IKZF3 substrate protein remaining % [2]: A (0% ≤ substrate protein remaining % ≤80%)
GSPT1 substrate protein remaining % [3]: A (0% ≤ substrate protein remaining % ≤80%)
IKZF2 substrate protein remaining % [4]: A (0% ≤ substrate protein remaining % ≤80%)
IKZF1 substrate protein remaining % [5]: A (0% ≤ substrate protein remaining % ≤80%)
CK1α substrate protein remaining % [6]: A (0% ≤ substrate protein remaining % ≤80%)

Cc1nc(C2CCN(Cc3ccc4c(c3)C(=O)N(N3CCC(=O)NC3=O)C4=O)CC2)c2c(-c3ccccc3)csc2n1 [GT-08110, 2-(2,4-dioxotetrahydropyrimidin-1(2H)-yl)-5-((4-(2-methyl-5-phenylthieno[2,3-d]pyrimidin-4-yl)piperidin-1-yl)methyl)isoindoline-1,3-dione]
WEE1 substrate protein remaining % [1]: A (0% ≤ substrate protein remaining % ≤80%)
IKZF3 substrate protein remaining % [2]: A (0% ≤ substrate protein remaining % ≤80%)
GSPT1 substrate protein remaining % [3]: A (0% ≤ substrate protein remaining % ≤80%)
IKZF2 substrate protein remaining % [4]: A (0% ≤ substrate protein remaining % ≤80%)
IKZF1 substrate protein remaining % [5]: A (0% ≤ substrate protein remaining % ≤80%)
CK1α substrate protein remaining % [6]: A (0% ≤ substrate protein remaining % ≤80%)

Cc1nc(C2CCN(Cc3ccc4c(c3)C(=O)N(N3CCC(=O)NC3=O)C4=O)CC2)c2c3c(sc2n1)CCCC3 [GT-08111, 2-(2,4-dioxotetrahydropyrimidin-1(2H)-yl)-5-((4-(2-methyl-5,6,7,8-tetrahydrobenzo[4,5]thieno[2,3-d]pyrimidin-4-yl)piperidin-1-yl)methyl)isoindoline-1,3-dione]
WEE1 substrate protein remaining % [1]: B (80%< substrate protein remaining % ≤100%)
IKZF3 substrate protein remaining % [2]: B (80%< substrate protein remaining % ≤100%)
GSPT1 substrate protein remaining % [3]: A (0% ≤ substrate protein remaining % ≤80%)
IKZF2 substrate protein remaining % [4]: B (80%< substrate protein remaining % ≤100%)
IKZF1 substrate protein remaining % [5]: B (80%< substrate protein remaining % ≤100%)
CK1α substrate protein remaining % [6]: A (0% ≤ substrate protein remaining % ≤80%)

O=C1CCN(N2Cc3cc(CN4CCC(c5ncnc6sc7c(c56)CCCC7)CC4)ccc3C2=O)C(=O)N1 [GT-08112, 1-(1-oxo-5-((4-(5,6,7,8-tetrahydrobenzo[4,5]thieno[2,3-d]pyrimidin-4-yl)piperidin-1-yl)methyl)isoindolin-2-yl)dihydropyrimidine-2,4(1H,3H)-dione]
WEE1 substrate protein remaining % [1]: B (80%< substrate protein remaining % ≤100%)
IKZF3 substrate protein remaining % [2]: B (80%< substrate protein remaining % ≤100%)
GSPT1 substrate protein remaining % [3]: A (0% ≤ substrate protein remaining % ≤80%)
IKZF2 substrate protein remaining % [4]: B (80%< substrate protein remaining % ≤100%)
IKZF1 substrate protein remaining % [5]: B (80%< substrate protein remaining % ≤100%)
CK1α substrate protein remaining % [6]: B (80%< substrate protein remaining % ≤100%)

O=C1CCN(N2Cc3cc(CN4CCC(c5ncnc6sc7c(c56)CCC7)CC4)ccc3C2=O)C(=O)N1 [GT-08113, 1-(5-((4-(6,7-dihydro-5H-cyclopenta[4,5]thieno[2,3-d]pyrimidin-4-yl)piperidin-1-yl)methyl)-1-oxoisoindolin-2-yl)dihydropyrimidine-2,4(1H,3H)-dione]
WEE1 substrate protein remaining % [1]: B (80%< substrate protein remaining % ≤100%)
IKZF3 substrate protein remaining % [2]: B (80%< substrate protein remaining % ≤100%)
GSPT1 substrate protein remaining % [3]: A (0% ≤ substrate protein remaining % ≤80%)
IKZF2 substrate protein remaining % [4]: B (80%< substrate protein remaining % ≤100%)
IKZF1 substrate protein remaining % [5]: B (80%< substrate protein remaining % ≤100%)
CK1α substrate protein remaining % [6]: A (0% ≤ substrate protein remaining % ≤80%)

Cc1nc(C2CCN(Cc3ccc4c(c3)CN(N3CCC(=O)NC3=O)C4=O)CC2)c2c3c(sc2n1)CCC3 [GT-08114, 1-(5-((4-(2-methyl-6,7-dihydro-5H-cyclopenta[4,5]thieno[2,3-d]pyrimidin-4-yl)piperidin-1-yl)methyl)-1-oxoisoindolin-2-yl)dihydropyrimidine-2,4(1H,3H)-dione]
WEE1 substrate protein remaining % [1]: B (80%< substrate protein remaining % ≤100%)
IKZF3 substrate protein remaining % [2]: B (80%< substrate protein remaining % ≤100%)
GSPT1 substrate protein remaining % [3]: A (0% ≤ substrate protein remaining % ≤80%)
IKZF2 substrate protein remaining % [4]: B (80%< substrate protein remaining % ≤100%)
IKZF1 substrate protein remaining % [5]: B (80%< substrate protein remaining % ≤100%)
CK1α substrate protein remaining % [6]: B (80%< substrate protein remaining % ≤100%)

O=C1CCN(N2Cc3cc(CN4CCC(c5ncc6ccsc6n5)CC4)ccc3C2=O)C(=O)N1 [GT-08115, 1-(1-oxo-5-((4-(thieno[2,3-d]pyrimidin-2-yl)piperidin-1-yl)methyl)isoindolin-2-yl)dihydropyrimidine-2,4(1H,3H)-dione]
WEE1 substrate protein remaining % [1]: B (80%< substrate protein remaining % ≤100%)
IKZF3 substrate protein remaining % [2]: B (80%< substrate protein remaining % ≤100%)
GSPT1 substrate protein remaining % [3]: A (0% ≤ substrate protein remaining % ≤80%)
IKZF2 substrate protein remaining % [4]: B (80%< substrate protein remaining % ≤100%)
IKZF1 substrate protein remaining % [5]: B (80%< substrate protein remaining % ≤100%)
CK1α substrate protein remaining % [6]: A (0% ≤ substrate protein remaining % ≤80%)

O=C1CCN(N2Cc3cc(CN4CC=C(c5ncnc6sccc56)CC4)ccc3C2=O)C(=O)N1 [GT-08116, 1-(1-oxo-5-((4-(thieno[2,3-d]pyrimidin-4-yl)-3,6-dihydropyridin-1(2H)-yl)methyl)isoindolin-2-yl)dihydropyrimidine-2,4(1H,3H)-dione]
WEE1 substrate protein remaining % [1]: A (0% ≤ substrate protein remaining % ≤80%)
IKZF3 substrate protein remaining % [2]: A (0% ≤ substrate protein remaining % ≤80%)
GSPT1 substrate protein remaining % [3]: A (0% ≤ substrate protein remaining % ≤80%)
IKZF2 substrate protein remaining % [4]: B (80%< substrate protein remaining % ≤100%)
IKZF1 substrate protein remaining % [5]: A (0% ≤ substrate protein remaining % ≤80%)
CK1α substrate protein remaining % [6]: A (0% ≤ substrate protein remaining % ≤80%)

From patent US20260356819A1, “OXOISOINDOLINYL-SUBSTITUTED […] DERIVATIVE AND USE THEREOF” (GLUETACS THERAPEUTICS (SHANGHAI) CO., LTD., priority 2023, published 2026)
